Data from US11370763B2, “Compounds and compositions for treating conditions associated with NLRP activity” (Novartis AG, priority 2017, dated 2022).
pIC50: −log10 of the molar value. Like-named read-outs stand apart in the source and are kept apart here.

Tested on: IL-1β production in PMA-differentiated THP-1 cells
Experiment: IL-1β production in PMA-differentiated THP-1 cells stimulated with gramicidin (hTHP-1 assay containing 2% fetal bovine serum; Procedures 1-3)
Type: cell-based, human
Settings: Homo sapiens, THP-1, hTHP-1 assay containing 2% fetal bovine serum, read-out: hTHP-1 IC50 (Average IC50 of compounds in hTHP-1 assay)
Outline: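 THP-1 cells differentiated with PMA (20 ng/ml, 16-18 h), replated in 2% FBS RPMI (50,000 cells/well), preincubated 1 h with compound (top final 100 μM, 3-fold steps, 0.37% DMSO), then stimulated 2 h with gramicidin (5 μM). Supernatant IL-1β measured by HTRF.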

pIC50 (given as numeric bound) | pIC50 (class symbols) | Compound
< 4.52 |  | CNS(=O)(=NC(=O)Cc1c2c(cc3c1CCC3)CCC2)c1ncc(C(C)(C)O)s1 (stereo not shown) [Example 12, 2-(1,2,3,5,6,7-Hexahydro-s-indacen-4-yl)-N-(5-(2-hydroxypropan-2-yl)-N-methylthiazole-2-sulfonimidoyl)acetamide]
 | 7.40 to 8.10 | CC(C)c1cc(C#N)c(F)c(C(C)C)c1CC(=O)N=S(N)(=O)c1sc(C(C)(C)O)cc1F (stereo not shown) [Example 14, 2-(4-cyano-3-fluoro-2,6-diisopropylphenyl)-N-(3-fluoro-5-(2-hydroxypropan-2-yl)thiophen-2-ylsulfonimidoyl)acetamide]
 | 5.30 to 6.00 | CC(C)c1cc(F)cc(C2CC2)c1CC(=O)N=S(N)(=O)c1ccc(CN(C)C)cc1 (stereo not shown) [Example 15, 2-(2-cyclopropyl-4-fluoro-6-isopropylphenyl)-N-(4-((dimethylamino)methyl)phenyl-sulfonimidoyl)acetamide]
 | 6.00 to 6.70 | CC(C)c1cc(OC(F)F)cc(C(C)C)c1CC(=O)N=S(N)(=O)c1cnc(C(C)(C)O)s1 (stereo not shown) [Example 16, 2-(4-(difluoromethoxy)-2,6-diisopropylphenyl)-N-(2-(2-hydroxypropan-2-yl)thiazol-5-ylsulfonimidoyl)acetamide]
 | 7.40 to 8.10 | CC(C)c1cc(F)cc(C(C)C)c1CC(=O)N=S(N)(=O)c1sc(C(C)(C)O)cc1F (stereo not shown) [Example 17, 2-(4-fluoro-2,6-diisopropylphenyl)-N-(3-fluoro-5-(2-hydroxypropan-2-yl)thiophen-2-ylsulfonimidoyl)acetamide]
 | 6.70 to 7.40 | CC(C)c1cc(F)cc(C2CC2)c1CC(=O)N=S(N)(=O)c1sc(C(C)(C)O)cc1F (stereo not shown) [Example 18, 2-(2-cyclopropyl-4-fluoro-6-isopropylphenyl)-N-(3-fluoro-5-(2-hydroxypropan-2-yl)thiophen-2-ylsulfonimidoyl)acetamide]
 | 7.40 to 8.10 | CC(C)c1c(F)c(C#N)cc(C2CC2)c1CC(=O)N=S(N)(=O)c1sc(C(C)(C)O)cc1F (stereo not shown) [Example 19, 2-(4-cyano-6-cyclopropyl-3-fluoro-2-isopropylphenyl)-N-(3-fluoro-5-(2-hydroxypropan-2-yl)thiophen-2-ylsulfonimidoyl)acetamide]
 | 6.00 to 6.70 | CC(C)c1cc(Cl)c(F)c(C2CC2)c1CC(=O)N=S(N)(=O)c1sc(C(C)(C)O)cc1F (stereo not shown) [Example 20, 2-(4-chloro-2-cyclopropyl-3-fluoro-6-isopropylphenyl)-N-(3-fluoro-5-(2-hydroxypropan-2-yl)thiophen-2-ylsulfonimidoyl)acetamide]
 | 6.70 to 7.40 | CC(C)c1cc(OC(F)F)cc(C(C)C)c1CC(=O)N=S(N)(=O)c1sc(C(C)(C)O)cc1F (stereo not shown) [Example 21, 2-(4-(difluoromethoxy)-2,6-diisopropylphenyl)-N-(3-fluoro-5-(2-hydroxypropan-2-yl)thiophen-2-ylsulfonimidoyl)acetamide]
 | 6.00 to 6.70 | CC(C)c1cc(C#N)cc(C(C)C)c1CC(=O)N=S(N)(=O)c1sc(C(C)(C)O)nc1CO (stereo not shown) [Example 22, 2-(4-cyano-2,6-diisopropylphenyl)-N-(4-(hydroxymethyl)-2-(2-hydroxypropan-2-yl)thiazol-5-ylsulfonimidoyl)acetamide]
 | 5.30 to 6.00 | CC(C)(O)c1nc(CO)c(S(N)(=O)=NC(=O)Cc2c3c(cc4c2CCC4)CCC3)s1 (stereo not shown) [Example 23, 2-(1,2,3,5,6,7-hexahydros-indacen-4-yl)-N-(4-(hydroxymethyl)-2-(2-hydroxypropan-2-yl)thiazol-5-ylsulfonimidoyl)acetamide]
 | 6.00 to 6.70 | COCc1cc(C(C)C)c(CC(=O)N=S(N)(=O)c2sc(C(C)(C)O)nc2CO)c(C(C)C)c1 (stereo not shown) [Example 24, 2-(2,6-diisopropyl-4-(methoxymethyl)phenyl)-N-(4-(hydroxymethyl)-2-(2-hydroxypropan-2-yl)thiazole-5-sulfonimidoyl)acetamide]
 | 5.30 to 6.00 | CC(C)c1cc(C#N)cc(C2CC2)c1CC(=O)N=S(N)(=O)c1sc(C(C)(C)O)nc1CO (stereo not shown) [Example 25, 2-(4-cyano-2-cyclopropyl-6-isopropylphenyl)-N-(4-(hydroxymethyl)-2-(2-hydroxypropan-2-yl)thiazole-5-sulfonimidoyl)acetamide]
